Columns and labels:
Type in all cases: physicochemical
[1] = Solubility of KUS121 in water; conditions: at 25°C
[2] = Preliminary experiment: soluble concentration of KUS121 in normal PBS buffer
Protocol: The maximum dose of KUS121 to the vitreous body of the eye is 50 µg/eye, and the liquid volume that can be administered into the vitreous body is preferably about 100 µL or less. […] In view of these premises and the above-mentioned problems, the present inventors have extensively studied to design an injection formulation of KUS121 in a normal PBS buffer that can be administered into the vitreous body, wherein about 50 µg of KUS121 is dissolved in a normal PBS buffer (about 100 µL), i.e., a formulation that allows a concentration setting of 0.5 mg/mL and matches the osmotic pressure in the vitreous body. As a result, the present inventors have conducted the following trials and then have found the following things: i.e., the present inventors first prepared 1 mL of 0.1 mg/mL KUS121 aqueous solution by dissolving KUS121 in water for injection and then adding a PBS buffer solution with about twice the concentration of normal to the KUS121 solution, in which the PBS concentration is 1/5 of the normal concentration. Then, the prepared KUS121 aqueous solution was lyophilized, and 200 µL (0.2 mL) of water for injection [200 µL (0.2 mL) corresponds to 1/5 the volume before the lyophilization] was added to the lyophilized product. […]

[3] = Solubility of KUS121 in PBS buffer at different temperatures (filtrate quantified by HPLC); conditions: for solubility of KUS121: detection limit about 1 µg/mL, quantification limit 5 µg/mL; for solubility: PBS buffer solution, aqueous buffer, thermodynamic from solid
Protocol: A PBS buffer solution comprising 1.6 mg of sodium chloride, 0.229 mg of disodium hydrogen phosphate, 0.04 mg of potassium dihydrogen phosphate, and 0.04 mg of potassium chloride per mL of the solution was prepared, and the temperature of the PBS buffer solution was adjusted to 5°C, 25°C, 40°C, 50°C, and 60°C. KUS121 was added little by little to each solution at the different temperatures and stirred. After stirring for a sufficient time period from the time when some undissolved material appeared, the solution was filtered. As a result of quantifying the filtrate using HPLC, the solubility of KUS121 at each temperature was as follows (detection limit: about 1 µg/mL, quantification limit: 5 µg/mL) .

## Cc1cc(F)ccc1-c1ccc(N=Nc2cc(S(=O)(=O)[O-])c3ccccc3c2N)cn1.O.O.[Na+] [KUS121, Sodium 4-amino-3-[6-(4-fluoro-2-methylphenyl)pyridin-3-ylazo]naphthalene-1-sulfonate dihydrate]
[1]
  solubility: ~2800 µg/mL
[2]; PBS buffer, result in words
  solubility of KUS121 in PBS buffer: extremely low
[2]; normal PBS buffer solution, aqueous buffer, normal PBS buffer, room temperature, preliminary experiment
  solubility: ≤ 10 µg/mL
[3]; 5°C
  solubility of KUS121: below detection limit
[3]; 25°C
  solubility of KUS121: below detection limit
[3]; 40°C
  solubility: 7 µg/mL
[3]; 50°C
  solubility: 47 µg/mL
[3]; 60°C
  solubility: 132 µg/mL
